Experimental data from publication PMC6001238, “Iterative Chemical Engineering of Vancomycin Leads to Novel Vancomycin Analogs With a High in Vitro Therapeutic Index” (Frontiers in Microbiology, 2018).
Values after ≈ are worked out from the molar mass of the structure shown.

Tests used:
[1] = test system: E. faecalis VRE 37; assay: MIC, broth microdilution, vancomycin-resistant E. faecalis VRE 37 (VanA); assay type: cell-based, Enterococcus faecalis; settings: for MIC: Enterococcus faecalis VRE 37 (vancomycin-resistant), read-out: MIC; for MIC-fold improvement vs. vancomycin: VRE 37, ratio of MIC of vancomycin and MIC of analogue
Summary of the method: (§1)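 Following CLSI antimicrobial susceptibility standards, organisms were tested by broth microdilution. Controls comprised ultrapure water plus broth left uninoculated. For a single condition, 10 μM vancomycin (final) accompanied the analog or control agent.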

[2] = test system: L1210, CEM and HeLa cell lines; assay: Cytostatic activity, average or summary over L1210, CEM and HeLa; assay type: cell-based; settings: average of L1210, CEM and HeLa; read-out: Toxicity (IC50) Average
Summary of the method: (§2)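 Suspensions (300,000–500,000 cells/mL) combined with equal volumes of diluted compound; 37°C; L1210 2 d / CEM 3 d / HeLa 4 d; counted by Coulter counter; IC50 vs untreated wells.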

[3] = test system: E. faecalis VRE 53; assay: MIC, broth microdilution, vancomycin-resistant E. faecalis VRE 53 (VanA); assay type: cell-based, Enterococcus faecalis; settings: for MIC: Enterococcus faecalis VRE 53 (vancomycin-resistant), read-out: MIC; for MIC-fold improvement vs. vancomycin: VRE 53, ratio of MIC of vancomycin and MIC of analogue
Summary of the method: as §1

[4] = test system: MRSA KS2; assay: MIC, broth microdilution, MRSA KS2; assay type: cell-based, Staphylococcus aureus; settings: for MIC-fold improvement vs. vancomycin: MRSA KS2, ratio of MIC of vancomycin and MIC of analogue; for MIC: Staphylococcus aureus MRSA KS2, read-out: MIC
Summary of the method: as §1

[5] = test system: E. faecalis VRE 29; assay: MIC, broth microdilution, vancomycin-resistant E. faecalis VRE 29 (VanA); assay type: cell-based, Enterococcus faecalis; settings: for MIC: Enterococcus faecalis VRE 29 (vancomycin-resistant), read-out: MIC; for MIC-fold improvement vs. vancomycin: VRE 29, ratio of MIC of vancomycin and MIC of analogue
Summary of the method: as §1

[6] = test system: MRSA KS89; assay: MIC, broth microdilution, MRSA KS89; assay type: cell-based, Staphylococcus aureus; settings: for MIC-fold improvement vs. vancomycin: MRSA KS8, ratio of MIC of vancomycin and MIC of analogue; for MIC: Staphylococcus aureus MRSA KS8, read-out: MIC
Summary of the method: as §1

[7] = test system: S. aureus VSSA (ATCC 6538); assay: MIC, broth microdilution, vancomycin-sensitive S. aureus (VSSA/MSSA, ATCC 6538); assay type: cell-based, Staphylococcus aureus; settings: for MIC: Staphylococcus aureus VSSA, read-out: MIC; for MIC-fold improvement vs. vancomycin: VSSA, ratio of MIC of vancomycin and MIC of analogue
Summary of the method: as §1

[8] = test system: MRSA KS6; assay: MIC, broth microdilution, MRSA KS6; assay type: cell-based, Staphylococcus aureus; settings: for MIC-fold improvement vs. vancomycin: MRSA KS6, ratio of MIC of vancomycin and MIC of analogue; for MIC: Staphylococcus aureus MRSA KS6, read-out: MIC
Summary of the method: as §1

[9] = test system: human cervix carcinoma (HeLa) cells; assay: Cytostatic activity, HeLa cell proliferation; assay type: cell-based; settings: mean ± SD of three experiments; highest concentration tested 250 µM; 4 days; read-out: Toxicity (IC50) HeLa
Summary of the method: as §2

[10] = test system: S. aureus VISA/HIP5827; assay: MIC, broth microdilution, vancomycin-intermediate S. aureus VISA HIP5827; assay type: cell-based, Staphylococcus aureus; settings: for MIC: Staphylococcus aureus VISA/HIP5827, read-out: MIC; for MIC-fold improvement vs. vancomycin: VISA/HIP5827, ratio of MIC of vancomycin and MIC of analogue
Summary of the method: as §1

[11] = test system: E. faecalis VSE 1; assay: MIC, broth microdilution, vancomycin-sensitive E. faecalis (VSE 1); assay type: cell-based, Enterococcus faecalis; settings: for MIC: Enterococcus faecalis VSE 1 (vancomycin-sensitive), read-out: MIC; for MIC-fold improvement vs. vancomycin: VSE 1, ratio of MIC of vancomycin and MIC of analogue
Summary of the method: as §1

[12] = test system: S. aureus VRSA; assay: MIC, broth microdilution, vancomycin-resistant S. aureus (VRSA); assay type: cell-based, Staphylococcus aureus; settings: for MIC: Staphylococcus aureus VRSA, read-out: MIC; for MIC-fold improvement vs. vancomycin: VRSA, ratio of MIC of vancomycin and MIC of analogue
Summary of the method: as §1

[13] = test system: human T-lymphocyte (CEM) cells; assay: Cytostatic activity, CEM cell proliferation; assay type: cell-based; settings: mean ± SD of three experiments; highest concentration tested 250 µM; 3 days; read-out: Toxicity (IC50) CEM
Summary of the method: as §2

[14] = test system: Murine leukemia (L1210) cells; assay: Cytostatic activity, L1210 cell proliferation; assay type: cell-based; settings: mean ± SD of three experiments; highest concentration tested 250 µM; 2 days; read-out: Toxicity (IC50) L1210
Summary of the method: as §2

[15] = test system: E. faecalis VRE 6; assay: MIC, broth microdilution, vancomycin-resistant E. faecalis VRE 6 (VanA); assay type: cell-based, Enterococcus faecalis; settings: for MIC: Enterococcus faecalis VRE 6 (vancomycin-resistant), read-out: MIC; for MIC-fold improvement vs. vancomycin: VRE 6, ratio of MIC of vancomycin and MIC of analogue
Summary of the method: as §1

[16] = test system: MRSA KS1; assay: MIC, broth microdilution, MRSA KS1; assay type: cell-based, Staphylococcus aureus; settings: for MIC-fold improvement vs. vancomycin: MRSA KS1, ratio of MIC of vancomycin and MIC of analogue; for MIC: Staphylococcus aureus MRSA KS1, read-out: MIC
Summary of the method: as §1

Compound | MIC [1] [µM] | MIC-fold improvement vs. vancomycin [1] | IC50 [2] [µM] | MIC [3] [µM] | MIC-fold improvement vs. vancomycin [3] | MIC-fold improvement vs. vancomycin [4] | MIC [4] [µM] | MIC [5] [µM] | MIC-fold improvement vs. vancomycin [5] | MIC-fold improvement vs. vancomycin [6] | MIC [6] [µM] | MIC [7] [µM] | MIC-fold improvement vs. vancomycin [7] | MIC-fold improvement vs. vancomycin [8] | MIC [8] [µM] | IC50 [9] [µM] | MIC [10] [µM] | MIC-fold improvement vs. vancomycin [10] | MIC [11] [µM] | MIC-fold improvement vs. vancomycin [11] | other results
CN[C@H](CC(C)C)C(=O)N[C@H]1C(=O)N[C@@H](CC(N)=O)C(=O)N[C@H]2C(=O)N[C@H]3C(=O)N[C@H](C(=O)N[C@H](C(=O)NCCNC(=O)/C=C/c4ccc(NS(=O)(=O)c5ccccc5)cc4)c4cc(O)cc(O)c4-c4cc3ccc4O)[C@H](O)c3ccc(c(Cl)c3)Oc3cc2cc(c3O[C@@H]2O[C@H](CO)[C@@H](O)[C@H](O)[C@H]2O[C@H]2C[C@](C)(N)[C@H](O)[C@H](C)O2)Oc2ccc(cc2Cl)[C@H]1O [Vanc-54] | 25 (≈ 44.4 µg/mL) | 16 | 185 | 25 (≈ 44.4 µg/mL) | 16 | 2 | 0.39 (≈ 0.693 µg/mL) | 25 (≈ 44.4 µg/mL) | 16 | 2 | 0.39 (≈ 0.693 µg/mL) | 0.39 (≈ 0.693 µg/mL) | 2 | 2 | 0.39 (≈ 0.693 µg/mL) | 54 ± 29 | 0.78 (≈ 1.39 µg/mL) | 8 | 0.78 (≈ 1.39 µg/mL) | 2 | MIC [12]: 0.39 µM (≈ 0.693 µg/mL); MIC-fold improvement vs. vancomycin [12]: 256; IC50 [13]: ≥ 250 µM; IC50 [14]: > 250 µM; MIC [15]: 12.5 µM (≈ 22.2 µg/mL); MIC-fold improvement vs. vancomycin [15]: 16; MIC-fold improvement vs. vancomycin [16]: 2; MIC [16]: 0.39 µM (≈ 0.693 µg/mL)
CN[C@H](CC(C)C)C(=O)N[C@H]1C(=O)N[C@@H](CC(N)=O)C(=O)N[C@H]2C(=O)N[C@H]3C(=O)N[C@H](C(=O)N[C@H](C(=O)NCC(=O)Nc4ccc(OC)c(OC)c4)c4cc(O)cc(O)c4-c4cc3ccc4O)[C@H](O)c3ccc(c(Cl)c3)Oc3cc2cc(c3O[C@@H]2O[C@H](CO)[C@@H](O)[C@H](O)[C@H]2O[C@H]2C[C@](C)(N)[C@H](O)[C@H](C)O2)Oc2ccc(cc2Cl)[C@H]1O [Vanc-7] | 12.5 (≈ 20.5 µg/mL) | 64 | > 250 | 12.5 (≈ 20.5 µg/mL) | 32 | 2 | 0.39 (≈ 0.64 µg/mL) | 12.5 (≈ 20.5 µg/mL) | 32 | 1 | 0.78 (≈ 1.28 µg/mL) | 0.78 (≈ 1.28 µg/mL) | 1 | 1 | 0.78 (≈ 1.28 µg/mL) | > 250 | 0.78 (≈ 1.28 µg/mL) | 8 | 0.78 (≈ 1.28 µg/mL) | 2 | MIC [12]: 12.5 µM (≈ 20.5 µg/mL); MIC-fold improvement vs. vancomycin [12]: 8; IC50 [13]: > 250 µM; IC50 [14]: > 250 µM; MIC [15]: 12.5 µM (≈ 20.5 µg/mL); MIC-fold improvement vs. vancomycin [15]: 16; MIC-fold improvement vs. vancomycin [16]: 1; MIC [16]: 0.78 µM (≈ 1.28 µg/mL)
CNC(CC(C)C)C(=O)NC1C(=O)NC(CC(N)=O)C(=O)NC2C(=O)NC3C(=O)NC(C(=O)NC(C(=O)NCC(=O)Nc4ccc(C#CC5CCCC5)cc4)c4cc(O)cc(O)c4-c4cc3ccc4O)C(O)c3ccc(c(Cl)c3)Oc3cc2cc(c3OC2OC(CO)C(O)C(O)C2OC2CC(C)(N)C(O)C(C)O2)Oc2ccc(cc2Cl)C1O (stereo not shown) [Vanc-69] | 6.25 (≈ 10.5 µg/mL) | 64 | 90 | 6.25 (≈ 10.5 µg/mL) | 64 | 4 | 0.20 (≈ 0.335 µg/mL) | 6.25 (≈ 10.5 µg/mL) | 64 | 4 | 0.20 (≈ 0.335 µg/mL) | 0.78 (≈ 1.31 µg/mL) | 1 | 4 | 0.20 (≈ 0.335 µg/mL) | 55 ± 37 | 0.78 (≈ 1.31 µg/mL) | 8 | 0.78 (≈ 1.31 µg/mL) | 2 | MIC [12]: 1.56 µM (≈ 2.61 µg/mL); MIC-fold improvement vs. vancomycin [12]: 64; IC50 [13]: 29 µM; IC50 [14]: 185 ± 93 µM; MIC [15]: 3.13 µM (≈ 5.24 µg/mL); MIC-fold improvement vs. vancomycin [15]: 64; MIC-fold improvement vs. vancomycin [16]: 1; MIC [16]: 0.78 µM (≈ 1.31 µg/mL)
CNC(CC(C)C)C(=O)NC1C(=O)NC(CC(N)=O)C(=O)NC2C(=O)NC3C(=O)NC(C(=O)NC(C(=O)NCC(=O)Nc4ccc5c(c4)C(=O)c4ccccc4-5)c4cc(O)cc(O)c4-c4cc3ccc4O)C(O)c3ccc(c(Cl)c3)Oc3cc2cc(c3OC2OC(CO)C(O)C(O)C2OC2CC(C)(N)C(O)C(C)O2)Oc2ccc(cc2Cl)C1O (stereo not shown) [Vanc-89] | 6.25 (≈ 10.5 µg/mL) | 64 | 88 | 12.5 (≈ 21 µg/mL) | 32 | 8 | 0.10 (≈ 0.168 µg/mL) | 6.25 (≈ 10.5 µg/mL) | 64 | 4 | 0.20 (≈ 0.337 µg/mL) | 0.10 (≈ 0.168 µg/mL) | 8 | 4 | 0.20 (≈ 0.337 µg/mL) | 154 ± 30 | 0.78 (≈ 1.31 µg/mL) | 8 | ≤0.05 | ≥32 | MIC [12]: 0.78 µM (≈ 1.31 µg/mL); MIC-fold improvement vs. vancomycin [12]: 128; IC50 [13]: 38 ± 10 µM; IC50 [14]: 71 ± 56 µM; MIC [15]: 3.13 µM (≈ 5.27 µg/mL); MIC-fold improvement vs. vancomycin [15]: 64; MIC-fold improvement vs. vancomycin [16]: 8; MIC [16]: 0.10 µM (≈ 0.168 µg/mL)
